According to patent US8466170B2, “7-azaindole derivatives” (Merck Patent GmbH, priority 2008, dated 2013):

Legend:
Assay type in all cases: biochemical
SGK1 = target: T1, SGK1 (Homo sapiens, UniProt O00141); assay: SGK1 enzyme inhibition (filter binding method); conditions: Target SGK1
T1 sequence (O00141 1-431): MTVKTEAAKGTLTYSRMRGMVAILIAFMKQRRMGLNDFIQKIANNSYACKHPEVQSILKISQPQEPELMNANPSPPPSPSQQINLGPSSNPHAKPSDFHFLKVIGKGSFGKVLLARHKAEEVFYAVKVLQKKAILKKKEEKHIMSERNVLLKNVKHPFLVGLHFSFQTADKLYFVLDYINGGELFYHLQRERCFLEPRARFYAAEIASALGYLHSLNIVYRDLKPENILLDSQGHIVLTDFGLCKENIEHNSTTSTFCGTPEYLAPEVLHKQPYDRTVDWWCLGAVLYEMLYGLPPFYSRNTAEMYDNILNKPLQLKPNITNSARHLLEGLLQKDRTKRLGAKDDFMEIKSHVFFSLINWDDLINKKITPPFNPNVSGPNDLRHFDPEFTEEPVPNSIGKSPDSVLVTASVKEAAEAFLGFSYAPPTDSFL
Excerpt: The inhibition of SGK1 protein kinase can be determined in the filter binding method.

SAPK3 = target: T2, SAPK3 (Homo sapiens, UniProt P53778); assay: SAPK3 enzyme inhibition; conditions: Target SAPK3
T2 sequence (P53778 1-367): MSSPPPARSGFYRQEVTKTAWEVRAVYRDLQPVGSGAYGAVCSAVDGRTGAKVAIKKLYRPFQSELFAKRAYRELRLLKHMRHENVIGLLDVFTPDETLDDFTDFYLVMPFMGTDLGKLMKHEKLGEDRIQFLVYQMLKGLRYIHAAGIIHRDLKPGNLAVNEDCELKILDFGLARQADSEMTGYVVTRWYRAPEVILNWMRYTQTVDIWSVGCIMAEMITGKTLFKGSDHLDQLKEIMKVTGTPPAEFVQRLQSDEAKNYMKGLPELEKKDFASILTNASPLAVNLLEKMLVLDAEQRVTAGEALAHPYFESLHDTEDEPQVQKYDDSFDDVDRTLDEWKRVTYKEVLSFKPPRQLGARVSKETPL

GSK3-beta = GSK3-beta (Homo sapiens, UniProt P49841); assay: Measurement of the GSK3-beta activity; conditions: Target GSK3-beta; read-out: Inhibition IC50 (enzyme)
Procedure: The GSK3-beta activity can be measured analogously to WO 2008/078196. GSK3b (5-20 mU diluted in 20 mM MOPS ph 7.5, 1 mM EDTA, […], 0.01% Brj35, 5% glycerol, 0.1% beta-mercaptoethanol, 1 mg/ml of BSA) is measured against phospho-GS2 peptide ([…](PO4)EDEEE) in a final volume of 25.5 μl containing 8 mM MOPS ph 7.0, 0.2 mM EDTA, 20 μM phospho GS2 peptide, 10 mM magnesium acetate and 0.005 mM [33P-g-ATP] (50-1000 cpm/pmol) and is incubated at room temperature for 30 minutes. The assay is stopped by addition of 5 μl of 0.5 M (3%) orthophosphoric acid and is then harvested on P81 unifilter plates with a wash buffer (50 mM orthophosphoric acid).

CHK2 = CHK2 (Homo sapiens, UniProt O96017); assay: CHK2 enzyme inhibition; conditions: Target CHK2
AMPK = AMPK enzyme inhibition; conditions: Target AMPK
MKK1 = MKK1 (Homo sapiens, UniProt Q02750); assay: MKK1 enzyme inhibition; conditions: Target MKK1
Met kinase = target: T3, Met kinase (Homo sapiens, UniProt P08581); assay: Met kinase flashplate method; conditions: Target Met kinase; read-out: Inhibition IC50 (enzyme)
T3 construct: 6His (N); purchased Upstate 14-526; host or cells: Sf21 insect cells (S. frugiperda), baculovirus
Excerpt: According to the manufacturer's data (Met, active, Upstate, catalogue No. 14-526), Met kinase is expressed for the purposes of protein production in insect cells (Sf21; S. frugiperda) and subsequent affinity-chromatographic purification as “N-terminal 6His-tagged” recombinant human protein in a baculovirus expression vector.
The kinase activity can be measured using various available measurement systems. In the scintillation proximity method (Sorg et al., J. of Biomolecular Screening, 2002, 7, 11-19), the flashplate method or the filter binding test, the radioactive phosphorylation of a protein or peptide as substrate is measured using radioactively labelled ATP (^32P-ATP, ^33P-ATP). In the case of the presence of an inhibitory compound, a reduced radioactive signal, or none at all, can be detected. Furthermore, homogeneous time-resolved fluorescence resonance energy transfer (HTR-FRET) and fluoroescence polarisation (FP) technologies can be used as assay methods (Sills et al., J. of Biomolecular Screening, 2002, 191-214).
The test plates used are 96-well Flashplate^R microtitre plates from Perkin Elmer (Cat. No. SMP200). […] The measurement of the bound radioactivity is carried out by means of a scintillation measuring instrument (Topcount NXT, Perkin-Elmer).
The full value used is the inhibitor-free kinase reaction. […] The inhibitory values (IC50) are determined using the RS1_MTS program. […]

T3 sequence (P08581 974-1390 limits assumed): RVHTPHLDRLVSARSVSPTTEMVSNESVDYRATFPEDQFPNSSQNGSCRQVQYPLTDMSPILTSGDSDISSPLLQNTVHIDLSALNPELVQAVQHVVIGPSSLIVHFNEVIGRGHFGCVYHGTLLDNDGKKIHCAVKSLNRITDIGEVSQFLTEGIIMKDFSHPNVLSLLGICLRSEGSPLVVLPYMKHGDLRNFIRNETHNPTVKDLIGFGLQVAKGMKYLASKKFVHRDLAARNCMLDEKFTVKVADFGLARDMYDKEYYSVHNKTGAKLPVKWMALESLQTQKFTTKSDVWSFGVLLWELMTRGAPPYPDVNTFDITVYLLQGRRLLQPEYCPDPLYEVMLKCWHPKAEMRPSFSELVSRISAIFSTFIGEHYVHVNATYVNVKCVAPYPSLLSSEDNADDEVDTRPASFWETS
Chain of MKK1 (Q02750 whole entry, species assumed): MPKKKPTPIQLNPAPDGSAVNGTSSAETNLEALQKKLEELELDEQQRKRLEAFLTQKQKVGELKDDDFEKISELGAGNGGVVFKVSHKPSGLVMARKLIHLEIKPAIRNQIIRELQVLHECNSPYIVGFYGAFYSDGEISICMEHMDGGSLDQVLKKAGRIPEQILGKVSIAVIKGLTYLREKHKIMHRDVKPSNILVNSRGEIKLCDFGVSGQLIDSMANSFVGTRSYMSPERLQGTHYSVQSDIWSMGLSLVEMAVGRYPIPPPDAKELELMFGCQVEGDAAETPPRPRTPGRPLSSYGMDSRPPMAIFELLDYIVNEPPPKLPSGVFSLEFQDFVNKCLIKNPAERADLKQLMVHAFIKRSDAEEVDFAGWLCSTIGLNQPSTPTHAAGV
Chain of CHK2 (O96017 whole entry, species assumed): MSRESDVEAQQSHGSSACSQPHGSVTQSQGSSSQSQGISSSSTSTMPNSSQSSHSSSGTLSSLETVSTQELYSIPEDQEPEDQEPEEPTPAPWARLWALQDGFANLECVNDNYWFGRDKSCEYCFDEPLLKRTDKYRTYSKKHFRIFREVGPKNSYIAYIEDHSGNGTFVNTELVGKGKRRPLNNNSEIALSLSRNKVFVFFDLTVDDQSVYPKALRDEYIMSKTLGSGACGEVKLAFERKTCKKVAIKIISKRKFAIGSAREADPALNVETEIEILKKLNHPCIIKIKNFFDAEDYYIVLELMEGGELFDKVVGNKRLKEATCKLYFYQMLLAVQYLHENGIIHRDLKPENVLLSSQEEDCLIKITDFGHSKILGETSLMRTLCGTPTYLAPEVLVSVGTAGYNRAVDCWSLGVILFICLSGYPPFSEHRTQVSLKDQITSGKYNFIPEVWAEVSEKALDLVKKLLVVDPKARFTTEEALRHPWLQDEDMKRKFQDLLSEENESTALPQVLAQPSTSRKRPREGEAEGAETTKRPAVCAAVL
Chain of GSK3-beta (P49841 whole entry, species assumed): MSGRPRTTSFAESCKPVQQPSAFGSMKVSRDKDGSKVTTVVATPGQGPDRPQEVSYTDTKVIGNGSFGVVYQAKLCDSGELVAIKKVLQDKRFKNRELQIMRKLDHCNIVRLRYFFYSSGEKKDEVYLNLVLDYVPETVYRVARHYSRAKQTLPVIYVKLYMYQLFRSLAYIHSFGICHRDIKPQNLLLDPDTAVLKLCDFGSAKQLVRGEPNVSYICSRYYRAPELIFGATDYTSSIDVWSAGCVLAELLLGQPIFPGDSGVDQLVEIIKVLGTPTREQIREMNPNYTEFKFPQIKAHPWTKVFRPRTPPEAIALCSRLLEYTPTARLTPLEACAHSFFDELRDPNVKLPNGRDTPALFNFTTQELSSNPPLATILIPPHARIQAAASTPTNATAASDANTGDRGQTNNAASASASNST

Compound | IC50 (SGK1) [nM] | other results
Nc1nnc(-c2c[nH]c3ncccc23)o1 [Compound A3, 5-(1H-pyrrolo[2,3-b]pyridin-3-yl)-1,3,4-oxadiazol-2-ylamine] | 100 to 10000 | –
COc1cccc(CNc2nnc(-c3c[nH]c4ncccc34)o2)c1 [Compound A1, (3-methoxybenzyl)-[5-(1H-pyrrolo[2,3-b]pyridin-3-yl)-1,3,4-oxadiazol-2-yl]amine] | 1 to 100 | IC50 (SAPK3): 0.1 to 10 µM; IC50 (GSK3-beta): 1 to 100 nM; IC50 (CHK2): 1 to 100 nM; IC50 (AMPK): 1 to 100 nM; IC50 (MKK1): 1 to 100 nM
COc1cccc(CNc2nnc(-c3c[nH]c4ncc(Br)cc34)o2)c1 [Compound A4] | 1 to 100 | IC50 (Met kinase): 0.1 to 10 µM
COc1cccc(CNc2nnc(-c3c[nH]c4ncccc34)n2N)c1 [Compound A10, N*3*-(3-methoxybenzyl)-5-(1H-pyrrolo[2,3-b]pyridin-3-yl)-1,2,4-triazole-3,4-diamine] | 100 to 10000 | –

Continued, in another order:

IC50 (SGK1) [nM] | Compound | other results
100 to 10000 | c1ccc(Nc2nnc(-c3c[nH]c4ncccc34)o2)cc1 [Compound A2, phenyl-[5-(1H-pyrrolo[2,3-b]pyridin-3-yl)-1,3,4-oxadiazol-2-yl]amine] | –
100 to 10000 | COc1cccc(CNc2nnc(-c3c[nH]c4ncccc34)n2Cc2ccccc2)c1 [Compound A9, [4-benzyl-5-(1H-pyrrolo[2,3-b]pyridin-3-yl)-4H-1,2,4-triazol-3-yl]-(3-methoxybenzyl)amine] | –
100 to 10000 | COc1cccc(CNc2nnc(-c3c[nH]c4ncc(-c5cn[nH]c5)cc34)o2)c1 [Compound A6] | –
1 to 100 | Fc1cccc(CNc2nnc(-c3c[nH]c4ncccc34)o2)c1 [Compound A5] | IC50 (Met kinase): 0.1 to 10 µM
